Experimental data taken from US8847000B2 (priority 2006, dated 2014).

System: cell proliferation
Format: cell-based

Arsenious acid was tested, and the IC50 was 10 µM.

trimethylarsineoxide [TMAO] was tested, and the IC50 was over 6000 µM.
